Tests used:
[1] = Cell cycle arrest in human EC109 cells assessed as accumulation at G2/M phase at 2.5 uM after 12 hrs by propidium iodide staining-based flow cytometric analysis (reference value: 13.72%); assay type: functional; details: ECa-109
[2] = Cell cycle arrest in human EC109 cells assessed as accumulation at G0/G1 phase at 2.5 uM after 24 hrs by propidium iodide staining-based flow cytometric analysis (reference value: 51.57%); assay type: functional; details: ECa-109
ECa-109 cell line [3] = experiment: Induction of apoptosis in human EC109 cells assessed as late apoptotic cells at 2.5 uM after 12 hrs by annexin V-FITC/propidium iodide staining-based flow cytometric analysis (reference value: 1.4%); assay type: functional
ECa-109 cell line [4] = experiment: Induction of apoptosis in human EC109 cells assessed as early apoptotic cells at 10 uM after 12 hrs by annexin V-FITC/propidium iodide staining-based flow cytometric analysis (reference value: 6.1%); assay type: functional
[5] = Cell cycle arrest in human EC109 cells assessed as accumulation at G2/M phase at 10 uM after 12 hrs by propidium iodide staining-based flow cytometric analysis (reference value: 13.72%); assay type: functional; details: ECa-109
ECa-109 cell line [6] = experiment: Induction of apoptosis in human EC109 cells assessed as live cells at 40 uM after 24 hrs by annexin V-FITC/propidium iodide staining-based flow cytometric analysis (reference value: 93.6%); assay type: functional
ECa-109 cell line [7] = experiment: Induction of apoptosis in human EC109 cells assessed as late apoptotic cells at 40 uM after 12 hrs by annexin V-FITC/propidium iodide staining-based flow cytometric analysis (reference value: 1.4%); assay type: functional
ECa-109 cell line [8] = experiment: Induction of apoptosis in human EC109 cells assessed as late apoptotic cells at 20 uM after 24 hrs by annexin V-FITC/propidium iodide staining-based flow cytometric analysis (reference value: 2.5%); assay type: functional
[9] = Cell cycle arrest in human EC109 cells assessed as accumulation at G0/G1 phase at 2.5 uM after 12 hrs by propidium iodide staining-based flow cytometric analysis (reference value: 50.87%); assay type: functional; details: ECa-109
SMMC-7721 = experiment: Cytotoxicity against human SMMC7721 cells assessed as growth inhibition after 72 hrs by MTT assay; assay type: functional, cell-based; details: SMMC-7721, 72 h
ECa-109 cell line [10] = experiment: Induction of apoptosis in human EC109 cells assessed as early apoptotic cells at 5 uM after 24 hrs by annexin V-FITC/propidium iodide staining-based flow cytometric analysis (reference value: 3.8%); assay type: functional
[11] = Cell cycle arrest in human EC109 cells assessed as accumulation at G2/M phase at 2.5 to 10 uM by propidium iodide staining-based flow cytometric analysis; assay type: functional; details: ECa-109, TDE = time-dependent effect

`C[C@]12CC[C@H](O)CC1=CC[C@@H]1[C@@H]2CC[C@]2(C)c3nc4ncnn4c(-c4cccc(-c5c6c(nc7ncnn57)[C@@]5(C)CC[C@H]7[C@@H](CC=C8C[C@@H](O)CC[C@@]87C)[C@@H]5C6)c4)c3C[C@@H]12` gave an Activity [1] of 17.9%, an Activity [2] of 52.5% and an Activity (ECa-109 cell line [3]) of 13.1%. It also gave an Activity (ECa-109 cell line [4]) of 19.9%, an Activity [5] of 28.3% and an Activity (ECa-109 cell line [6]) of 8.3%. The Activity (ECa-109 cell line [7]) was 65.3%, the Activity (ECa-109 cell line [8]) was 58.9% and the Activity [9] was 48.5%. The IC50 (SMMC-7721) was 1.68 µM, the Activity (ECa-109 cell line [10]) was 39.1% and the Activity [11] was “tde”.

— ChEMBL document CHEMBL2434882, “A novel [1,2,4] triazolo [1,5-a] pyrimidine-based phenyl-linked steroid dimer: synthesis and its cytotoxic activity” (Eur J Med Chem, 2013)
